{"source": "patent US9643960B2", "about": "“Procaspase activating compounds” (The Board of Trustees of the University of Illinois, priority 2009, dated 2017)", "key": {"U-937 cells": {"tested_on": "U-937 cells", "test": "Induction of apoptosis, annexin V/PI staining", "assay_type": "cell-based, human", "details": "50 μM, 12 hours", "procedure": "The cells were centrifuged (200 g for 5 min), washed with PBS (2 mL), resuspended in 500 μL Annexin V Binding Buffer. To each sample was added 10 μL of FITC conjugated Annexin V stain (Southern Biotech) and 10 μL of propidium iodide (Sigma) to a final concentration of 50 μg/mL. Cell populations were analyzed on a Benton Dickinson LSR II cell flow cytometer."}, "SK-Mel-5": {"tested_on": "SK-Mel-5", "test": "Cytotoxicity in SK-Mel-5 cells (sulforhodamine B, 72 h)", "assay_type": "cell-based", "details": "SK-Mel-5, Human Melanoma"}, "GL-1": {"tested_on": "GL-1", "test": "Cytotoxicity in GL-1 cells (sulforhodamine B, 72 h)", "assay_type": "cell-based", "details": "Canis lupus familiaris, GL-1, Dog Lymphoma"}, "[1]": {"test": "Formulation of PAC-1 in aqueous 2-hydroxypropyl-β-cyclodextrin", "assay_type": "physicochemical", "excerpt": "Formulation of PAC-1. […] Complete dissolution requires acidification of the aqueous solution to pH 1.5-2, and then the solution is restored to pH 5-6."}, "OSW": {"tested_on": "OSW", "test": "Cytotoxicity in OSW cells (sulforhodamine B, 72 h)", "assay_type": "cell-based", "details": "Canis lupus familiaris, Dog Lymphoma"}, "[2]": {"tested_on": "healthy research hound dog", "test": "Neurotoxicity in dogs", "assay_type": "in vivo", "excerpt": "Further information about this compound is described elsewhere herein."}, "MDA-MB-231": {"tested_on": "MDA-MB-231", "test": "Cytotoxicity in MDA-MB-231 cells (sulforhodamine B, 72 h)", "assay_type": "cell-based", "details": "MDA-MB-231, Human Breast"}, "EL-4": {"tested_on": "EL-4", "test": "Cytotoxicity in EL-4 cells (sulforhodamine B, 72 h)", "assay_type": "cell-based", "details": "EL4, EL-4, Mouse Lymphoma"}, "17-71": {"tested_on": "17-71", "test": "Cytotoxicity in 17-71 cells (MTS cell viability assay)", "assay_type": "cell-based", "details": "Canis lupus familiaris, 17-71, Dog Lymphoma"}, "[3]": {"tested_on": "U937 human lymphoma cells", "test": "Cell death assay in U937 cells (sulforhodamine B, 72 h)", "assay_type": "cell-based", "details": "Homo sapiens, U-937, 72 h", "procedure": "To each well was added 2 μL of 100× compound stock solutions in DMSO at varying concentrations so that the cells were treated with concentrations between 0 μM and 100 μM compound. Each concentration was tested in quintuplicate. In each plate 5 wells received 10 μM etoposide as a positive control and 5 wells received 2 μL of DMSO as a negative control. […] 1 Specifically, to each well of the plate was added 50 μL of an 80% (w/v) solution of TCA in H2O and the plates were allowed to rest at 4° C. overnight. The plates were then washed gently with a steam of H2O five times to remove the excess TCA and precipitated serum proteins. […] After staining, the wells were gently washed 5 times with 100 μL of 1% (v/v) acetic acid to remove the unbound dye. The plates were then allowed to air dry. […] The OD was then read at 510 nm in a Molecular Dynamics plate reader and the percent cell death calculated and normalized to the positive control (100% cell death) and the negative control (0% cell death). The percent cell death was averaged for each compound concentration and plotted as a function of compound concentration. The data were fit to a logistical dose response curve using Table curve 2D and the IC50 value was calculated. The experiment was repeated three times and the average of the calculated IC50 values was reported. The standard error of the mean (SEM) was determined and reported for the triplicate experiments.\nU-937 cells grow in culture as a suspension."}, "HeLa": {"tested_on": "HeLa", "test": "Cytotoxicity in HeLa cells (sulforhodamine B, 72 h)", "assay_type": "cell-based", "details": "Human Cervical"}, "Jurkat": {"tested_on": "Jurkat", "test": "Cytotoxicity in Jurkat cells (sulforhodamine B, 72 h)", "assay_type": "cell-based", "details": "Human Leukemia"}, "C57/BL6 mice": {"tested_on": "C57/BL6 mice", "test": "Neurotoxicity in mice after intravenous administration", "assay_type": "in vivo, mouse", "details": "for Neurotoxicity: Mice, preliminary results"}, "[4]": {"test": "Solubility in β-cyclodextran", "assay_type": "physicochemical"}}, "note": "Like-named read-outs stand apart in the source and are kept apart here.", "data": [{"compound": "C=CCc1cccc(/C=N/NC(=O)CN2CCN(Cc3ccccc3)CC2)c1O", "note": "[PAC-1]", "values": [{"measurement": "apoptosis (annexin V staining)", "setting": "U-937 cells", "result": "~40", "unit": "%"}, {"measurement": "IC50", "setting": "SK-Mel-5", "result": "11.5 ± 3.6", "unit": "µM"}, {"measurement": "IC50", "setting": "GL-1", "result": "4.9 ± 0.3", "unit": "µM"}, {"measurement": "solubility", "setting": "[1]; aqueous 200 mg/mL 2-hydroxypropyl-β-cyclodextrin solution, aqueous with cosolvent or surfactant or cyclodextrin, aqueous 200 mg/mL solution of 2-hydroxypropyl-β-cyclodextrin", "result": 20, "unit": "mg/mL"}, {"measurement": "stability in solution", "setting": "[1]; stored at 4° C., pH 5-6", "result": "at least 5 days"}, {"measurement": "IC50", "setting": "OSW", "result": "8.6 ± 1.3", "unit": "µM"}, {"measurement": "toxicity at higher doses", "setting": "[2]; dog, formulation with 2-hydroxypropyl-β-cyclodextrin", "result": "acute neurological toxicity (ataxia and seizure)"}, {"measurement": "duration of neurotoxicity", "setting": "[2]; one hound dog, 60 mg/kg i.v.", "result": 20, "unit": "min"}, {"measurement": "IC50", "setting": "MDA-MB-231", "result": "9.9 ± 1", "unit": "µM"}, {"measurement": "IC50", "setting": "EL-4", "result": "3.8 ± 0.9", "unit": "µM"}, {"measurement": "IC50", "setting": "17-71", "result": "2.5 ± 0.9", "unit": "µM"}, {"measurement": "IC50", "setting": "[3]; read-out: IC50 Value (μM), U-937, Human Lymphoma, 72 hours", "result": "9.3 ± 0.5", "unit": "µM"}, {"measurement": "IC50", "setting": "[3]; read-out: U937 (IC50 μM), 72 h exposure, sulforhodamine B assay", "result": "4.8 ± 1", "unit": "µM"}, {"measurement": "IC50", "setting": "HeLa", "result": "15.5 ± 3.8", "unit": "µM"}, {"measurement": "IC50", "setting": "Jurkat", "result": "5.7 ± 2.8", "unit": "µM"}, {"measurement": "Neurotoxicity", "setting": "C57/BL6 mice; 12.5 mg/kg", "result": "No"}, {"measurement": "Neurotoxicity", "setting": "C57/BL6 mice; 37.5 mg/kg", "result": "Yes"}, {"measurement": "clinical signs of toxicity", "setting": "C57/BL6 mice; mice, 10 mg/kg i.v., observed 24 hours", "result": "no clinical signs of toxicity were observed"}, {"measurement": "clinical signs of toxicity", "setting": "C57/BL6 mice; mice, 20 mg/kg i.v.", "result": "mild neurological symptoms including lethargy, and mild ataxia"}, {"measurement": "persistence of symptoms after injection", "setting": "C57/BL6 mice; mice, 20 mg/kg i.v.", "result": 20, "unit": "min"}, {"measurement": "ataxia (incidence)", "setting": "C57/BL6 mice; mice, 30 mg/kg i.v.", "result": "3/3"}, {"measurement": "clinical signs of toxicity", "setting": "C57/BL6 mice; mice, 30 mg/kg i.v.", "result": "overt signs of neurotoxicity"}, {"measurement": "duration of neurotoxicity", "setting": "C57/BL6 mice; mice, 30 mg/kg i.v.", "result": "approximately 15 minutes"}, {"measurement": "loss of balance (incidence)", "setting": "C57/BL6 mice; mice, 30 mg/kg i.v.", "result": "3/3"}, {"measurement": "onset of neurotoxicity after injection", "setting": "C57/BL6 mice; mice, 30 mg/kg i.v.", "result": "≤ 5", "unit": "min"}, {"measurement": "spasms (incidence)", "setting": "C57/BL6 mice; mice, 30 mg/kg i.v.", "result": "1/3"}, {"measurement": "clinical signs of toxicity", "setting": "C57/BL6 mice; mice, 50 mg/kg i.v.", "result": "acute neurotoxic symptoms with more pronounced ataxia and loss of balance"}, {"measurement": "Solubility in β-Cyclodextran (mg β-CD/μmol Compound)", "setting": "[4]", "result": 5.3, "unit": "mg β-CD/μmol Compound"}]}]}
